In publication PMC6273209, “Evaluation of the Enantiomer Specific Biokinetics and Radiation Doses of [^18F]Fluspidine—A New Tracer in Clinical Translation for Imaging of σ1 Receptors” (Molecules, 2016):

Assay: Acute toxicity study, single intravenous injection
Assay type: in vivo
Details: single intravenous administration, Wistar rats, day 2 and day 15; highest tested dose
From the text: Supplementary Materials: Evaluation of the Enantiomer Specific Biokinetics and Radiation Doses of [18F]Fluspidine—A New Tracer in Clinical
Translation for Imaging of σ1 Receptors […]
Supplemental Methods and Results
Animal Toxicity Study of (S)-(−)-Fluspidine
The purpose of this study was to assess the acute toxicity of (S)-(−)-fluspidine when administered by a single intravenous injection to rats followed by an observation period of 2 or 15 day (in accordance with EU cGLP). Briefly, the study was performed with 4 test groups, including 1 control (saline and dimethylsulfoxide) and 3 dose groups (6.2, 62 and 620 µg/kg, (S)- (−)ﬂuspidine), with Wistar rats (60 m, 60 f, 12 weeks) divided into two experiments: day 2 (40 males and 40 females) and day 15 (20 males and 20 females). The animals were weighted and allocated to the test groups based on their actual body weights. The animals were sacrificed at two time periods (day 2 and day 15 after test item administration) and then examined macroscopically and histopathologically. In addition the following parameters were evaluated: mortality, clinical observation (spasms, tremor and hyperactivity), body weights, food consumption, haematology (white blood cells, red blood cells, hemoglobin, hematocrit, mean corpuscular volume, mean corpuscular hemoglobin, platelets, lympohcytes, neutrophils, eosinophils, basophils, monocytes), clinical chemistry (alkaline phosphatase, aspartate aminotransferase, alanine aminotransferase, glucose, cholesterol, triacylglycerols, creatinine, urea, bilirubin, albumin, calcium, phosphorus, sodium, potassium chloride), pathology and histopathology. […]
in either gender were detected. The food consumption corresponded with body weight development. All haematology parameter´s values on day 2 and day 15 were within physiological range for this species. Individual divergences of some values of the haematology parameters were slight and not connected with treatment.
There were no findings in clinical chemistry parameters which could be definitively considered as adverse. The average values of all test groups were within the historical control ranges. Occasional changes had no dose relationship, they were considered to be a result of intraindividual and interindividual variability for this species. […]
histopathological parameters on day 2 and day 15. The no observed effect level (NOEL) of (S)- (−)-fluspidine after single intravenous administration in this study for both day 2 and day 15 was determined to be 620 µg/kg.

SMILES: FCC[C@@H]1OC2(CCN(Cc3ccccc3)CC2)c2ccccc21 [(S)-(−)-[^18F]fluspidine]
- no observed effect level (NOEL): ≥ 0.6 mg/kg
